The text below walks through data of patent US11702422B2, “Imidazopyridazines as modulators of IL-17” (Janssen Pharmaceutica NV, priority 2020, dated 2023).

By pIC50 is commonly meant the negative decadic logarithm of the IC50, by convention in mol/L. Read a high pIC50 as a small IC50.

Assay [1] deals with IL-17A(FLAG-Tagged): IL-17RA(His-Tagged) (Homo sapiens, UniProt Q16552, K93Q). Nature of the assay: IL-17A(FLAG-Tagged): IL-17RA(His-Tagged) Binding Disruption Eu-HTRF Assay. Particulars: IL-17A/IL-17RA binding disruption, simple average if tested more than once. The essentials: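 IC50 comes from a one-site competition fit of the HTRF 665/620 nm ratio. Compound dilutions (2-fold, 22 points) were held 1 h rt with FLAG-tagged IL-17A dimer, then His-tagged IL-17RA plus Eu-cryptate anti-FLAG and D2 anti-His antibodies were added for 2 h rt.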
Chain of UniProt Q16552 (Q16552 with tags, fused parts or gaps K93Q): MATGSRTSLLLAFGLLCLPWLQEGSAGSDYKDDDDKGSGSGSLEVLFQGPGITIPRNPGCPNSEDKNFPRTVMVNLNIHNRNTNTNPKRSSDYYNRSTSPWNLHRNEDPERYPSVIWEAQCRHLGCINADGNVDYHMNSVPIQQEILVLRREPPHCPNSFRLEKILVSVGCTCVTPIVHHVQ

Assay [2] concerns IL-17A-induced G-CSF production in human normal keratinocyte (NHK). Briefly: NHK Assay: IL-17A-induced G-CSF production in human normal keratinocytes. In kind it is cell-based. Particulars: Homo sapiens, Keratinocyte, 24 h, adult normal human keratinocytes, IL-17A 5 ng/mL, simple average if tested more than once. The essentials: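 IL-17A (5 ng/mL final) was pre-incubated 1 h at rt with titrated compound and then added to adult normal human keratinocytes (5% FBS, 0.2% DMSO) for 24 h at 37° C. Supernatant G-CSF was measured by HTRF against a standard curve to derive IC50. Viability was checked by CellTiter-Glo.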

pIC50: −log10 of the molar value.

`O=C(CCC(F)(F)F)N[C@@H](c1cnn2cc([C@@H](NC(=O)c3cnnn3CC3CC3(F)F)C3CCC(F)(F)CC3)nc2c1)C1CC1` (stereo partly drawn) [Example 92, N—((S)-(7-((R)-Cyclopropyl(4,4,4-trifluorobutanamido)methyl)imidazo[1,2-b]pyridazin-2-yl)(4,4-difluorocyclohexyl)methyl)-1-((2,2-difluorocyclopropyl)methyl)-1H-1,2,3-triazole-5-carboxamide]: the pIC50 in assay [1] is 6.96; in assay [2] it was 6.85.

Take `O=C(CCC(F)(F)F)N[C@@H](c1cnn2cc([C@@H](NC(=O)c3cnn(CC4CC4(F)F)n3)C3CCC(F)(F)CC3)nc2c1)C1CC1` (stereo partly drawn) [Example 93, N—((S)-(7-((R)-Cyclopropyl(4,4,4-trifluorobutanamido)methyl)imidazo[1,2-b]pyridazin-2-yl)(4,4-difluorocyclohexyl)methyl)-2-((2,2-difluorocyclopropyl)methyl)-2H-1,2,3-triazole-4-carboxamide]: the pIC50 in assay [1] is 6.82; in assay [2], 6.55.

Regarding `O=C(CCC(F)(F)F)N[C@@H](c1cnn2cc([C@@H](NC(=O)c3cnnn3CC3CC(F)(F)C3(F)F)C3CCC(F)(F)CC3)nc2c1)C1CC1` (stereo partly drawn) [Example 94, N—((S)-(7-((R)-Cyclopropyl(4,4,4-trifluorobutanamido)methyl)imidazo[1,2-b]pyridazin-2-yl)(4,4-difluorocyclohexyl)methyl)-1-((2,2,3,3-tetrafluorocyclobutyl)methyl)-1H-1,2,3-triazole-5-carboxamide], the pIC50 in assay [1] is 6.96; in assay [2] it was 6.82.

For `O=C(CCC(F)(F)F)N[C@@H](c1cnn2cc([C@@H](NC(=O)c3cnn(CC4CC(F)(F)C4(F)F)n3)C3CCC(F)(F)CC3)nc2c1)C1CC1` (stereo partly drawn) [Example 95, N—((S)-(7-((R)-Cyclopropyl(4,4,4-trifluorobutanamido)methyl)imidazo[1,2-b]pyridazin-2-yl)(4,4-difluorocyclohexyl)methyl)-2-((2,2,3,3-tetrafluorocyclobutyl)methyl)-2H-1,2,3-triazole-4-carboxamide], the values for the pIC50 in assay [1] and in assay [2] were 7.00 and 6.59, respectively.

As to `O=C(CCC(F)(F)F)N[C@@H](c1cnn2cc([C@@H](NC(=O)c3cn(CC4CC(F)(F)C4(F)F)nn3)C3CCC(F)(F)CC3)nc2c1)C1CC1` (stereo partly drawn) [Example 96, N—((S)-(7-((R)-Cyclopropyl(4,4,4-trifluorobutanamido)methyl)imidazo[1,2-b]pyridazin-2-yl)(4,4-difluorocyclohexyl)methyl)-1-((2,2,3,3-tetrafluorocyclobutyl)methyl)-1H-1,2,3-triazole-4-carboxamide], the figures for the pIC50 in assay [1] and in assay [2] were 6.43 and 5.66, respectively.

Turning to `O=C(CCC(F)(F)F)N[C@@H](c1cnn2cc([C@@H](NC(=O)[C@H]3C[C@H]3F)C3CCC(F)(F)CC3)nc2c1)C1CC1` [Example 97, (1R,2R)—N—((S)-(7-((R)-Cyclopropyl(4,4,4-trifluorobutanamido)methyl)imidazo[1,2-b]pyridazin-2-yl)(4,4-difluorocyclohexyl)methyl)-2-fluorocyclopropane-1-carboxamide], the pIC50 in assay [1] was 5.27; in assay [2] it was less than 4.70.

Regarding `O=C(CCC(F)(F)F)N[C@@H](c1cnn2cc([C@@H](NC(=O)[C@H]3C[C@@H]3F)C3CCC(F)(F)CC3)nc2c1)C1CC1` [Example 98, (1R,2S)—N—((S)-(7-((R)-Cyclopropyl(4,4,4-trifluorobutanamido)methyl)imidazo[1,2-b]pyridazin-2-yl)(4,4-difluorocyclohexyl)methyl)-2-fluorocyclopropane-1-carboxamide], the pIC50 was 6.11 in assay [1] and 5.64 in assay [2].

On to `O=C(CCC(F)(F)F)N[C@@H](c1cnn2cc([C@@H](NC(=O)c3conc3CCF)C3CCC(F)(F)CC3)nc2c1)C1CC1` [Example 99, N—[(S)-[7-[(R)-Cyclopropyl-(4,4,4-trifluorobutanoylamino)methyl]imidazo[1,2-b]pyridazin-2-yl]-(4,4-difluorocyclohexyl)methyl]-3-(2-fluoroethyl)isoxazole-4-carboxamide], for which the pIC50 in assay [1] is 7.24; in assay [2], 7.22.

Regarding `CC1(c2nocc2C(=O)N[C@H](c2cn3ncc([C@H](NC(=O)CCC(F)(F)F)C4CC4)cc3n2)C2CCC(F)(F)CC2)COC1` [Example 100, N—[(S)-[7-[(R)-Cyclopropyl-(4,4,4-trifluorobutanoylamino)methyl]imidazo[1,2-b]pyridazin-2-yl]-(4,4-difluorocyclohexyl)methyl]-3-(3-methyloxetan-3-yl)isoxazole-4-carboxamide], the values for the pIC50 in assay [1] and in assay [2] were 6.80 and 7.07, respectively.

For the molecule `O=C(CCC(F)(F)F)N[C@@H](c1cnn2cc([C@@H](NC(=O)c3conc3C(F)(F)F)C3CCC(F)(F)CC3)nc2c1)C1CC1` [Example 101, N—[(S)-[7-[(R)-Cyclopropyl-(4,4,4-trifluorobutanoylamino)methyl]imidazo[1,2-b]pyridazin-2-yl]-(4,4-difluorocyclohexyl)methyl]-3-(trifluoromethyl)isoxazole-4-carboxamide], the negative-log IC50 (pIC50) is 7.41 in assay [1] and 6.80 in assay [2].

With `COCc1nocc1C(=O)N[C@H](c1cn2ncc([C@H](NC(=O)CCC(F)(F)F)C3CC3)cc2n1)C1CCC(F)(F)CC1` [Example 102, N—[(S)-[7-[(R)-Cyclopropyl-(4,4,4-trifluorobutanoylamino)methyl]imidazo[1,2-b]pyridazin-2-yl]-(4,4-difluorocyclohexyl)methyl]-3-(methoxymethyl)isoxazole-4-carboxamide], the negative logarithm of the IC50 (pIC50) in assay [1] was 6.92; in assay [2], 6.57.

Regarding `O=C(CCC(F)(F)F)N[C@@H](c1cnn2cc([C@@H](NC(=O)c3ncnn3C3CC3)C3CCC(F)(F)CC3)nc2c1)C1CC1` [Example 103, 1-Cyclopropyl-N—((S)-(7-((R)-cyclopropyl(4,4,4-trifluorobutanamido)methyl)imidazo[1,2-b]pyridazin-2-yl)(4,4-difluorocyclohexyl)methyl)-1H-1,2,4-triazole-5-carboxamide], the pIC50 in assay [1] is 6.96; in assay [2], 6.43.

`O=C(CCC(F)(F)F)N[C@@H](c1cnn2cc([C@@H](NC(=O)c3ccnn3C(F)(F)F)C3CCC(F)(F)CC3)nc2c1)C1CC1` [Example 104, N—((S)-(7-((R)-Cyclopropyl(4,4,4-trifluorobutanamido)methyl)imidazo[1,2-b]pyridazin-2-yl)(4,4-difluorocyclohexyl)methyl)-1-(trifluoromethyl)-1H-pyrazole-5-carboxamide]: the pIC50 in assay [1] was 7.05; in assay [2] it was 6.26.

On to `O=C(CCC(F)(F)F)N[C@@H](c1cnn2cc([C@@H](NC(=O)c3cnnn3CCF)C3CCC(F)(F)CC3)nc2c1)C1CC1` [Example 105, N—((S)-(7-((R)-Cyclopropyl(4,4,4-trifluorobutanamido)methyl)imidazo[1,2-b]pyridazin-2-yl)(4,4-difluorocyclohexyl)methyl)-1-(2-fluoroethyl)-1H-1,2,3-triazole-5-carboxamide], for which the results for the pIC50 in assay [1] and in assay [2] were 6.96 and 6.26, respectively.

Take `CCn1ncnc1C(=O)N[C@H](c1cn2ncc([C@H](NC(=O)CCC(F)(F)F)C3CC3)cc2n1)C1CCC(F)(F)CC1` [Example 106, N—((S)-(7-((R)-Cyclopropyl(4,4,4-trifluorobutanamido)methyl)imidazo[1,2-b]pyridazin-2-yl)(4,4-difluorocyclohexyl)methyl)-1-ethyl-1H-1,2,4-triazole-5-carboxamide]: the pIC50 is 6.89 in assay [1] and 6.08 in assay [2].

`O=C(CCC(F)(F)F)N[C@@H](c1cnn2cc([C@@H](NC(=O)c3cnn(CCF)n3)C3CCC(F)(F)CC3)nc2c1)C1CC1` [Example 107, N—((S)-(7-((R)-Cyclopropyl(4,4,4-trifluorobutanamido)methyl)imidazo[1,2-b]pyridazin-2-yl)(4,4-difluorocyclohexyl)methyl)-2-(2-fluoroethyl)-2H-1,2,3-triazole-4-carboxamide]: the negative logarithm of the IC50 (pIC50) in assay [1] was 6.82; in assay [2], 6.01.

Turning to `O=C(CCC(F)(F)F)N[C@@H](c1cnn2cc([C@@H](NC(=O)c3nnn(CC4CC4)c3C(F)(F)F)C3CCC(F)(F)CC3)nc2c1)C1CC1` [Example 108, N—((S)-(7-((R)-Cyclopropyl(4,4,4-trifluorobutanamido)methyl)imidazo[1,2-b]pyridazin-2-yl)(4,4-difluorocyclohexyl)methyl)-1-(cyclopropylmethyl)-5-(trifluoromethyl)-1H-1,2,3-triazole-4-carboxamide], the negative logarithm of the IC50 (pIC50) in assay [1] was 6.04; in assay [2], less than 4.70.

In the case of `O=C(CCC(F)(F)F)N[C@@H](c1cnn2cc([C@@H](NC(=O)c3nnn(CC(F)F)c3C(F)(F)F)C3CCC(F)(F)CC3)nc2c1)C1CC1` [Example 109, N—((S)-(7-((R)-Cyclopropyl(4,4,4-trifluorobutanamido)methyl)imidazo[1,2-b]pyridazin-2-yl)(4,4-difluorocyclohexyl)methyl)-1-(2,2-difluoroethyl)-5-(trifluoromethyl)-1H-1,2,3-triazole-4-carboxamide], the pIC50 in assay [1] was 6.36; in assay [2] it was 4.70.

Turning to `O=C(CCC(F)(F)F)N[C@@H](c1cnn2cc([C@@H](NC(=O)c3nnn(C4CC4)c3C(F)F)C3CCC(F)(F)CC3)nc2c1)C1CC1` [Example 110, 1-Cyclopropyl-N—((S)-(7-((R)-cyclopropyl(4,4,4-trifluorobutanamido)methyl)imidazo[1,2-b]pyridazin-2-yl)(4,4-difluorocyclohexyl)methyl)-5-(difluoromethyl)-1H-1,2,3-triazole-4-carboxamide], the pIC50 in assay [1] was 6.39; in assay [2], less than 4.70.
